Data published in patent US9938269B2, “Inhibitor compounds of phosphodiesterase type 10A” (ABBVIE INC., priority 2011, dated 2018).
Where a name gives a salt, the structure may show the parent alone.

Columns and labels:
PDE10A (human) = target: T1, PDE10A (human) (Homo sapiens, UniProt Q9Y233); assay: Measurement of PDE activity (HTRF cAMP kit), human PDE10A; assay type: biochemical; details: PDE enzymatic reaction, substrate 20 nM for PDE10, 60 minutes at 29 C
T1 construct: purchased BPS Bioscience
Procedure, shortened: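 HTRF detection of cAMP left after hydrolysis, expressed as percent of uninhibited control to derive IC50. Reaction: serially diluted inhibitor mixed with recombinant enzyme, started with 20 nM cAMP, 60 min at 29 °C in Tris-HCl pH 7.5 buffer containing MgCl2 and BSA.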

[1] = Determination of the microsomal half-life, rat liver microsomes; details: rat, liver microsomes, pH 7.4
[2] = Determination of the microsomal half-life, human liver microsomes; details: human, liver microsomes, pH 7.4

T1 sequence (Q9Y233 whole entry): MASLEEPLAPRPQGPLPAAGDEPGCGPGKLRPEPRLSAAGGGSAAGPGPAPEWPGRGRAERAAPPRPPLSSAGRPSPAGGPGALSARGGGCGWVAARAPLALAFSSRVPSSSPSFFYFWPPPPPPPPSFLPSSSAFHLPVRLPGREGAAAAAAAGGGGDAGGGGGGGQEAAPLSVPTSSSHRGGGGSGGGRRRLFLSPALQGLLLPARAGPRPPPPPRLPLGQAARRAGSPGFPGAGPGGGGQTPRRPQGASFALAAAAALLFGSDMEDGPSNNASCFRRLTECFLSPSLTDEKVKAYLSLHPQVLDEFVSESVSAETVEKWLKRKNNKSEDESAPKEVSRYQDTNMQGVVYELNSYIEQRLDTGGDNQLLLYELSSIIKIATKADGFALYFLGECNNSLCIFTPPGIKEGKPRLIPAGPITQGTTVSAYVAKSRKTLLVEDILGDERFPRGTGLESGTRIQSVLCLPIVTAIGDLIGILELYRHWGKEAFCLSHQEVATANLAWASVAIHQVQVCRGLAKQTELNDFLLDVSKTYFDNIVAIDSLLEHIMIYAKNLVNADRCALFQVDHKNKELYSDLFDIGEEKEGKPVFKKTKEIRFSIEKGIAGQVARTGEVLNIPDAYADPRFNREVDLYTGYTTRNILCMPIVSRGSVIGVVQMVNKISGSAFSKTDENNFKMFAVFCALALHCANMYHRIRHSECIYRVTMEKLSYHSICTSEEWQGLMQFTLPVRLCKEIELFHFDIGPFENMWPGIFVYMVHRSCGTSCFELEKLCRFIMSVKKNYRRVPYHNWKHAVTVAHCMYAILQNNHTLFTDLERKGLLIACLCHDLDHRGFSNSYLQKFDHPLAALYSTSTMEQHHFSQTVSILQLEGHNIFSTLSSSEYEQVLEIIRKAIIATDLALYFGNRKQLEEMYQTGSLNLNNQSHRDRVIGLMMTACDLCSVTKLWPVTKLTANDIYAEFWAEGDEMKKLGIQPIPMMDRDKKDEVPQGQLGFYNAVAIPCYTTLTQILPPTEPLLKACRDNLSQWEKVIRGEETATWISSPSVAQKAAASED

Row | IC50 (PDE10A (human)) | microsomal CLint at 0.5 μM [1] | microsomal CLint at 0.5 μM [2] | Structure (SMILES)
1 | < 0.1 µM | 100 to 220 µL/min/mg | 100 to 220 µL/min/mg | O=C1c2c(-c3cccnc3)ccnc2CN1CCc1ccc2ccccc2n1 [Example 329, 4-Pyridin-3-yl-6-(2-quinolin-2-yl-ethyl)-6,7-dihydro-pyrrolo[3,4-b]pyridin-5-one]
2 | < 0.1 µM | 100 to 220 µL/min/mg | < 100 µL/min/mg | O=C1c2c(N3CCC(CF)C3)ccnc2CN1CCc1cn2ccccc2n1 (stereo not drawn) [compound 384, 4-[3-(Fluoromethyl)pyrrolidin-1-yl]-6-(2-imidazo[1,2-a]pyridin-2-ylethyl)-7H-pyrrolo[3,4-b]pyridin-5-one]
3 | < 0.1 µM | < 100 µL/min/mg | < 100 µL/min/mg | O=C1c2cccc(-c3cc[nH]n3)c2CN1CCc1cn2ccccc2n1 [Example 314, 2-(2-Imidazo[1,2-a]pyridin-2-yl-ethyl)-4-(1H-pyrazol-3-yl)-2,3-dihydro-isoindol-1-one trifluoroacetate]
4 | 0.2 to 0.5 µM | > 220 µL/min/mg | 100 to 220 µL/min/mg | CCOc1ncc(-c2cccc3c2CN(CCc2ccc4ccccc4n2)C3=O)cn1 [Example 343, 4-(2-Ethoxy-pyrimidin-5-yl)-2-(2-quinolin-2-yl-ethyl)-2,3-dihydro-isoindol-1-one]
5 | < 0.1 µM | 100 to 220 µL/min/mg | 100 to 220 µL/min/mg | O=C1c2c(C3CCOCC3)ccnc2CN1CCc1ccc2ccccc2n1 [Example 297, 6-(2-Quinolin-2-yl-ethyl)-4-(tetrahydro-pyran-4-yl)-6,7-dihydro-pyrrolo[3,4-b]pyridin-5-one]
6 | 0.2 to 0.5 µM | < 100 µL/min/mg | < 100 µL/min/mg | O=C1c2c(-c3cncnc3)ccnc2CN1CCc1nc2ccccn2n1 [Example 215, 4-Pyrimidin-5-yl-6-(2-[1,2,4]triazolo[1,5-a]pyridin-2-yl-ethyl)-6,7-dihydro-pyrrolo[3,4-b]pyridin-5-one]
7 | 0.1 to 0.2 µM | 100 to 220 µL/min/mg | < 100 µL/min/mg | CCc1ccc(CCN2Cc3nccc(-c4ccncc4)c3C2=O)nc1 [compound 501, 6-[2-(5-Ethyl-2-pyridyl)ethyl]-4-(4-pyridyl)-7H-pyrrolo[3,4-b]pyridin-5-one trifluoroacetate]
8 | 0.2 to 0.5 µM | < 100 µL/min/mg | < 100 µL/min/mg | CN1CCN(c2cccc3c2C(=O)N(CCc2ccc4ccccc4n2)C3)CC1 [Example 107, 7-(4-Methyl-piperazin-1-yl)-2-(2-quinolin-2-yl-ethyl)-2,3-dihydro-isoindol-1-one]
9 | 0.1 to 0.2 µM | < 100 µL/min/mg | < 100 µL/min/mg | O=C1c2cccc(N3CCOCC3)c2CN1CCc1cn2ccccc2n1 [Example 308, 2-(2-Imidazo[1,2-a]pyridin-2-yl-ethyl)-4-morpholin-4-yl-2,3-dihydro-isoindol-1-one]
10 | < 0.1 µM | < 100 µL/min/mg | < 100 µL/min/mg | Cc1ccc2c(c1)nc(CCN1Cc3nccc(NC4COC4)c3C1=O)n2C [compound 416, 6-[2-(1,5-Dimethyl-1H-benzoimidazol-2-yl)-ethyl]-4-(oxetan-3-ylamino)-6,7-dihydro-pyrrolo[3,4-b]pyridin-5-one]
11 | < 0.1 µM | < 100 µL/min/mg | < 100 µL/min/mg | O=C1c2c(cccc2-c2ccc3[nH]c(=O)[nH]c3c2)CN1CCc1cn2ccccc2n1 [Example 245, 5-[2-(2-Imidazo[1,2-a]pyridin-2-yl-ethyl)-3-oxo-2,3-dihydro-1H-isoindol-4-yl]-1,3-dihydro-benzoimidazol-2-one]
12 | < 0.1 µM | < 100 µL/min/mg | < 100 µL/min/mg | O=C1c2c(N3CCOCC3)ccnc2CN1CCc1cn2cc(F)ccc2n1 [compound 493, 6-[2-(6-Fluoroimidazo[1,2-a]pyridin-2-yl)ethyl]-4-morpholino-7H-pyrrolo[3,4-b]pyridin-5-one trifluoroacetate]
13 | 0.2 to 0.5 µM | > 220 µL/min/mg | 100 to 220 µL/min/mg | O=C1c2c(-c3ccncc3)ccnc2CN1CCc1ccc(-c2ccccc2)cn1 [compound 488, 6-[2-(5-Phenyl-2-pyridyl)ethyl]-4-(4-pyridyl)-7H-pyrrolo[3,4-b]pyridin-5-one trifluoroacetate]
14 | < 0.1 µM | < 100 µL/min/mg | > 220 µL/min/mg | COc1ccc(-c2ccncc2)c2c1CN(CCc1nc3ccccc3n1C)C2=O [Example 370, 4-Methoxy-2-[2-(1-methyl-1H-benzoimidazol-2-yl)-ethyl]-7-pyridin-4-yl-2,3-dihydro-isoindol-1-one]
15 | < 0.1 µM | < 100 µL/min/mg | < 100 µL/min/mg | O=C1c2c(N3CCOCC3)ccnc2CN1CCc1ccc2ccccc2n1 [Example 119, 4-Morpholin-4-yl-6-(2-quinolin-2-yl-ethyl)-6,7-dihydro-pyrrolo[3,4-b]pyridin-5-one]
16 | < 0.1 µM | > 220 µL/min/mg | 100 to 220 µL/min/mg | COc1ccc(-c2ccnc3c2C(=O)N(CCc2ccc4ccccc4n2)C3)cc1 [Example 161, 4-(4-Methoxy-phenyl)-6-(2-quinolin-2-yl-ethyl)-6,7-dihydro-pyrrolo[3,4-b]pyridin-5-one]
17 | < 0.1 µM | 100 to 220 µL/min/mg | > 220 µL/min/mg | Cc1ncccc1COc1cccc2c1C(=O)N(CCc1ccc3ccccc3n1)C2 [Example 179, 7-(2-Methyl-pyridin-3-ylmethoxy)-2-(2-quinolin-2-yl-ethyl)-2,3-dihydro-isoindol-1-one]
18 | < 0.1 µM | 100 to 220 µL/min/mg | < 100 µL/min/mg | O=C1c2c(-c3ccncc3)ccnc2CN1CCc1ccc2ccccc2n1 [Example 3, 4-Pyridin-4-yl-6-(2-quinolin-2-yl-ethyl)-6,7-dihydro-pyrrolo[3,4-b]pyridin-5-one]
19 | < 0.1 µM | 100 to 220 µL/min/mg | < 100 µL/min/mg | O=C1c2c(N3CCC(O)CC3)ccnc2CN1CCc1ccc2ccccc2n1 [compound 530, 4-(4-Hydroxy-piperidin-1-yl)-6-(2-quinolin-2-yl-ethyl)-6,7-dihydro-pyrrolo[3,4-b]pyridin-5-one trifluoroacetate]
20 | 0.1 to 0.2 µM | < 100 µL/min/mg | < 100 µL/min/mg | O=C1c2c(cccc2N2CCOCC2)CN1CCc1cnc2ccccc2n1 [compound 482, 7-Morpholino-2-(2-quinoxalin-2-ylethyl)isoindolin-1-one]
21 | 0.1 to 0.2 µM | < 100 µL/min/mg | < 100 µL/min/mg | O=C1c2c(-c3cncnc3)ccnc2CN1CCc1nc2ccccc2s1 [compound 544, 6-[2-(1,3-Benzothiazol-2-yl)ethyl]-4-pyrimidin-5-yl-7H-pyrrolo[3,4-b]pyridin-5-one]
22 | 0.2 to 0.5 µM | < 100 µL/min/mg | < 100 µL/min/mg | Cc1ccnc(CCN2Cc3nccc(N4CCOCC4)c3C2=O)c1 [compound 521, 6-[2-(4-Methyl-2-pyridyl)ethyl]-4-morpholino-7H-pyrrolo[3,4-b]pyridin-5-one]
23 | < 0.1 µM | < 100 µL/min/mg | 100 to 220 µL/min/mg | Cn1c(CCN2Cc3cccc(N4CCOCC4)c3C2=O)nc2cc(F)ccc21 [Example 262, 2-[2-(5-Fluoro-1-methyl-1H-benzoimidazol-2-yl)-ethyl]-7-morpholin-4-yl-2,3-dihydro-isoindol-1-one]
24 | 0.1 to 0.2 µM | < 100 µL/min/mg | < 100 µL/min/mg | Cn1nccc1-c1ccnc2c1C(=O)N(CCc1nc3ccccc3n1C)C2 [Example 214, 6-[2-(1-Methyl-1H-benzoimidazol-2-yl)-ethyl]-4-(2-methyl-2H-pyrazol-3-yl)-6,7-dihydro-pyrrolo[3,4-b]pyridin-5-one]
25 | < 0.1 µM | 100 to 220 µL/min/mg | < 100 µL/min/mg | O=C1c2c(-c3cn[nH]c3)ccnc2CN1CCc1cn2ccccc2n1 [Example 365, 6-(2-Imidazo[1,2-a]pyridin-2-yl-ethyl)-4-(1H-pyrazol-4-yl)-6,7-dihydro-pyrrolo[3,4-b]pyridin-5-one]
26 | 0.2 to 0.5 µM | < 100 µL/min/mg | < 100 µL/min/mg | Cn1nccc1-c1ccnc2c1CN(CCc1ccc3ccccc3n1)C2=O [compound 459, 4-(2-Methyl-2H-pyrazol-3-yl)-6-(2-quinolin-2-yl-ethyl)-5,6-dihydro-pyrrolo[3,4-b]pyridin-7-one trifluoroacetate]
27 | < 0.1 µM | < 100 µL/min/mg | < 100 µL/min/mg | COc1cccc(CCN2Cc3nccc(N4CCOCC4)c3C2=O)n1 [compound 483, 6-[2-(6-Methoxy-2-pyridyl)ethyl]-4-morpholino-7H-pyrrolo[3,4-b]pyridin-5-one]
28 | < 0.1 µM | 100 to 220 µL/min/mg | 100 to 220 µL/min/mg | O=C1c2c(N3CCC(C(F)F)C3)ccnc2CN1CCc1nc2ccccc2s1 (stereo not drawn) [compound 385, 6-[2-(1,3-Benzothiazol-2-yl)ethyl]-4-[3-(difluoromethyl)pyrrolidin-1-yl]-7H-pyrrolo[3,4-b]pyridin-5-one]
29 | < 0.1 µM | < 100 µL/min/mg | < 100 µL/min/mg | O=C1c2c(-c3ccncc3)ccnc2CN1CCc1ccc2ncccc2n1 [compound 512, 6-[2-(1,5-Naphthyridin-2-yl)ethyl]-4-(4-pyridyl)-7H-pyrrolo[3,4-b]pyridin-5-one]
30 | < 0.1 µM | < 100 µL/min/mg | < 100 µL/min/mg | O=C1c2c(N3CCOCC3)ccnc2CN1CCc1ccc2ncccc2n1 [compound 514, 4-Morpholino-6-[2-(1,5-naphthyridin-2-yl)ethyl]-7H-pyrrolo[3,4-b]pyridin-5-one]
